Measurements reported in ChEMBL document CHEMBL1201862, “PubChem BioAssay data set” (2004).
Calls of active or inactive are those of the source.

Tests used:
[1] = target: T1, Mannose-6-phosphate isomerase (Homo sapiens, UniProt P34949); experiment: human PMI inhibitors, high substrate, primary screen, biochemical, fluorescence intensity, high mannose 6-phosphate (AID 1220)
T1 sequence (P34949 whole entry): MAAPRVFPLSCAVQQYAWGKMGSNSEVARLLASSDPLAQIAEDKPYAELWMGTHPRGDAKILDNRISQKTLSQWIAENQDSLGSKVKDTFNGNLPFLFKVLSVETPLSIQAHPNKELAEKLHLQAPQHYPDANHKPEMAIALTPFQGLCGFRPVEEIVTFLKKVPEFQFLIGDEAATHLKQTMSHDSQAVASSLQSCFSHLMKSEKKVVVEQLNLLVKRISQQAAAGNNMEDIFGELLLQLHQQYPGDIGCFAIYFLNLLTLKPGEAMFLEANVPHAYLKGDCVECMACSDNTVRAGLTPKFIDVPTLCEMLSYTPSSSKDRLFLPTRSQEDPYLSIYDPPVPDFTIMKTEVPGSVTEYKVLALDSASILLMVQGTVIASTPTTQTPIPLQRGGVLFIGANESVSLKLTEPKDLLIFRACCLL

Aminopeptidase N = target: T2, Aminopeptidase N (Plasmodium falciparum FcB1/Columbia, UniProt O96935); experiment: P. falciparum M1AAP inhibitors, biochemical, fluorogenic H-Leu-NHMec substrate, 1536-well (AID 1445); design: species or system Plasmodium falciparum 3D7, 3D7
T2 sequence (O96935 whole entry): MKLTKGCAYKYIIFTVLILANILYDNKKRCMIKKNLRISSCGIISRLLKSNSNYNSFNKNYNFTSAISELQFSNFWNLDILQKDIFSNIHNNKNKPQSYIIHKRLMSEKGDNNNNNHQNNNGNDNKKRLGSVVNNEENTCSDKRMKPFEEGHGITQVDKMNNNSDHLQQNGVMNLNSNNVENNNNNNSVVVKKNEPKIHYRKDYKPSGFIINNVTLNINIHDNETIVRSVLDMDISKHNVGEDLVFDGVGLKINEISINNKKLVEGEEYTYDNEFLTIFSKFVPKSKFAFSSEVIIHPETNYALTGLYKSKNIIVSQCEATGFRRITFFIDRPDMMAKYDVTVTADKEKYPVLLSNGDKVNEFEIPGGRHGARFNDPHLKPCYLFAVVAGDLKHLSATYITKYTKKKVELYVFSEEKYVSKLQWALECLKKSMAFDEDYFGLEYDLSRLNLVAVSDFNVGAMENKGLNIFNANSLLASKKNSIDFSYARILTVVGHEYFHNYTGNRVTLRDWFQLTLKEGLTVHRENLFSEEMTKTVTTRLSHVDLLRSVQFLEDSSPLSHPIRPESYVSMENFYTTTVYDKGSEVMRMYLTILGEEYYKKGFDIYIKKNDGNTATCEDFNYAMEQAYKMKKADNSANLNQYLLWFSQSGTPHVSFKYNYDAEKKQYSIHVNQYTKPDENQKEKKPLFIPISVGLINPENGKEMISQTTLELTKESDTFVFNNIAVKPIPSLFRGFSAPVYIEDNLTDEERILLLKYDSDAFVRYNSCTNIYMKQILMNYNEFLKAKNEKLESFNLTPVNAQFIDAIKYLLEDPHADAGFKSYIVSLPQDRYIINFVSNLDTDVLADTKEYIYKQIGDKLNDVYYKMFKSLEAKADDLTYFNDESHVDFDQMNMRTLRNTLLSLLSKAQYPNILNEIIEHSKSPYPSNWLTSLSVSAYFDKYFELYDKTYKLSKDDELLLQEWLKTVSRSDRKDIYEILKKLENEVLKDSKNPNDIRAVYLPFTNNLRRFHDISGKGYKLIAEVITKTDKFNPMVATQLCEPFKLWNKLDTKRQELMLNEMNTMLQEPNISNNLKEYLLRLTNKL

[2] = target: T3, Bifunctional protein GlmU (Mycobacterium tuberculosis, UniProt P9WMN3); experiment: Inhibitors of Mycobacterial Glucosamine-1-phosphate acetyl transferase (GlmU). Secondary screen.; design: species or system Mycobacterium tuberculosis H37Rv
T3 sequence (P9WMN3 whole entry): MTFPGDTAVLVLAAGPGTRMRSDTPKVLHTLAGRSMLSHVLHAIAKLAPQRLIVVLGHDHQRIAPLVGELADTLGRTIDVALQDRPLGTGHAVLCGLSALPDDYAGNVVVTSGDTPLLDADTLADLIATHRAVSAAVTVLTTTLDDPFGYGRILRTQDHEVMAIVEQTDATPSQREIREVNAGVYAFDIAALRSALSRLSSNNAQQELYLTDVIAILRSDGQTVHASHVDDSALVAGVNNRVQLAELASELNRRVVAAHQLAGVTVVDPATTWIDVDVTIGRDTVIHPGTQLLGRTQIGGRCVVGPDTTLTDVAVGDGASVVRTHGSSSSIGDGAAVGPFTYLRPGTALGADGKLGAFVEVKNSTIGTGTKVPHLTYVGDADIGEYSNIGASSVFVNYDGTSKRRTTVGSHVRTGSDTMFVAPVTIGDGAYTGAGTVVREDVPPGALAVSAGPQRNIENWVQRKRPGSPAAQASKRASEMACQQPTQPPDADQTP

HEK293 [3] = experiment: NOD1 signaling inhibitors, primary screen, cell-based, luminescence, uHTS (AID 1578); assay type: functional; conditions: Homo sapiens
HEK293 [4] = experiment: cells; assay type: functional, cell-based; conditions: Homo sapiens
HEK293 [5] = experiment: cells; assay type: functional, cell-based; conditions: Homo sapiens; remark: listed apart in the source
HEK293 [6] = experiment: NOD2 signaling inhibitors in MDP-stimulated cells, cell-based, uHTS, luminescence (AID 2001); assay type: functional; conditions: Homo sapiens
Tumor necrosis factor = Tumor necrosis factor (Homo sapiens, UniProt P01375); experiment: TNFa-triggered NF-kB activation inhibitors, SAR follow-up, cell-based, revised (AID 2337); assay type: functional
[7] = Luminescence Cell-Based Dose Retest to Confirm Inhibitors of Cancer Stem Cells. [Related pubchem assays (depositor defined):AID2717, AID2721]; assay type: functional; conditions: Homo sapiens
[8] = target: T4, Nucleotide-binding oligomerization domain-containing protein 1 (Homo sapiens, UniProt Q9Y239); experiment: NOD1 signaling inhibitors, SAR follow-up, revised (AID 2333); assay type: functional
T4 sequence (Q9Y239 whole entry): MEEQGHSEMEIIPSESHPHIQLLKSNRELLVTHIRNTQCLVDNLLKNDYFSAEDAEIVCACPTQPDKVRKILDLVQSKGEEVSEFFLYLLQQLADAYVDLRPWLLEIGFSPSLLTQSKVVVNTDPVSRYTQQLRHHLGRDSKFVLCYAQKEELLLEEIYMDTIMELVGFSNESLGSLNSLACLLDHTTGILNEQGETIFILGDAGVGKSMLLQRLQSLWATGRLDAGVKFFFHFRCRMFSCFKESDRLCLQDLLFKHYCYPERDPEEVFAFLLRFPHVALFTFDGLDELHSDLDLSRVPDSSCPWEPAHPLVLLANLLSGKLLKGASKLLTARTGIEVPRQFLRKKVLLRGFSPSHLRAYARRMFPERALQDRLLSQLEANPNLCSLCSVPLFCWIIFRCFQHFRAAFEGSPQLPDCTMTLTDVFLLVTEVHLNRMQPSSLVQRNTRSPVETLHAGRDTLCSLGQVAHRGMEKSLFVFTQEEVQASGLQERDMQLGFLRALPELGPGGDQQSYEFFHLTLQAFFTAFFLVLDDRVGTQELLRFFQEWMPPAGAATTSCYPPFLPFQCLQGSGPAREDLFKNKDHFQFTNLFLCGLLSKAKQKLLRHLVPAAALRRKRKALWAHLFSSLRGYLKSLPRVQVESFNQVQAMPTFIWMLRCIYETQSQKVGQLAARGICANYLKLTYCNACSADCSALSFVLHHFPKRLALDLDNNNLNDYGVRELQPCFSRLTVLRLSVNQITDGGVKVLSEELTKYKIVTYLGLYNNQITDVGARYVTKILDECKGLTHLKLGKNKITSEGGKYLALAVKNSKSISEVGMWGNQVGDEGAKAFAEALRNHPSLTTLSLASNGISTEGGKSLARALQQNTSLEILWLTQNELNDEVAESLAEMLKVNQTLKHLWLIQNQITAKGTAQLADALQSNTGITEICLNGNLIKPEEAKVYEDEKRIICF

Genome polyprotein = Genome polyprotein (dengue virus type 2, UniProt P29990); experiment: Dengue-2 NS5 methyltransferase inhibitors, primary screen, biochemical, confirmation dose response (AID 588689); assay type: functional
[9] = target: T5, Hepatocyte nuclear factor 4-alpha (Homo sapiens, UniProt P41235); assay type: functional, cell-based;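 also: biochemical luminescence-based dose-response counterscreen measuring inhibition of HNF4 dimerization, run alongside a screen for blockers of ABHD5–perilipin-5 interaction; split luciferase complementation of HNF4 fusion proteins in cell lysate measuring dimerization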
T5 sequence (P41235 whole entry): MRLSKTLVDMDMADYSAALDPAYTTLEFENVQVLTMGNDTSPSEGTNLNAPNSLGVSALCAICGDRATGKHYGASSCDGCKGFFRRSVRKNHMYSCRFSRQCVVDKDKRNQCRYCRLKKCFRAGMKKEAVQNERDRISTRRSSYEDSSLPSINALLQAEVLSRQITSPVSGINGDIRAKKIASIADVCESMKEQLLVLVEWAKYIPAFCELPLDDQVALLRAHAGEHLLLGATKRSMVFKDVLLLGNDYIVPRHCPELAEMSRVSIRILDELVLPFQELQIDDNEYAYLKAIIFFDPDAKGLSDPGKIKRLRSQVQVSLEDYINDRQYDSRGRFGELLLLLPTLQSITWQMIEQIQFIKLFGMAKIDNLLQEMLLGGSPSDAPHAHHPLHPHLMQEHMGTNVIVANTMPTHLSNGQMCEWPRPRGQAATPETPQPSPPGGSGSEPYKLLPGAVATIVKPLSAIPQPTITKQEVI

HEK293 [10] = experiment: cells; conditions: Homo sapiens
[11] = M. tuberculosis H37Rv growth inhibitors, H37Rv strain (AID 1626); assay type: functional
[12] = THP-1 cell cytotoxicity, dose response, cytotoxicity control for non-replicating M. tuberculosis project (AID 489025); assay type: functional
cells = assay type: functional
[13] = cytotoxicity in HEK-293T cells, dose response, cytotoxicity control for BCR NF-kB inhibitor project, luminescence, B-cell screen hits (AID 489021); assay type: functional, cell-based;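 also: HEK-293T cells carrying an NF-kB luciferase reporter; cells exposed to compound for about 14 hours before viability readout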
H9c2 = experiment: cells; assay type: functional, cell-based; conditions: Rattus norvegicus, H9c2, Myocardium;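 also: confirmatory concentration-response retest of ultra-high-throughput screening hits for modulation of myocardial damage; cell death induced by hydrogen peroxide oxidative stress; compound pretreatment for 60 min then peroxide exposure for 2 h; potency is for protecting the cells against peroxide damage rather than for killing them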
INS1 = experiment: beta cell apoptosis inhibitors, cytokine rescue, dose response, luminescence, retest (AID 449756); assay type: functional, cell-based; conditions: Rattus norvegicus;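 also: cell death triggered by IL-1 beta plus TNF-alpha plus IFN-gamma mixture; protective hits raise ATP signal compared with cytokine alone wells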

Sequence of Tumor necrosis factor (P01375 whole entry): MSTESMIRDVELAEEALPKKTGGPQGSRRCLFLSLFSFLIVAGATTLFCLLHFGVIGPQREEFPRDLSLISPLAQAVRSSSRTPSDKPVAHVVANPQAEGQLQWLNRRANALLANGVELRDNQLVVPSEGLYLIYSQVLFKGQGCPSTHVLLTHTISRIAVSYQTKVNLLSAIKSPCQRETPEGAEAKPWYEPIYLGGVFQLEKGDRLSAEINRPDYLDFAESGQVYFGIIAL
Sequence of Genome polyprotein (P29990 2492-3391 limits assumed): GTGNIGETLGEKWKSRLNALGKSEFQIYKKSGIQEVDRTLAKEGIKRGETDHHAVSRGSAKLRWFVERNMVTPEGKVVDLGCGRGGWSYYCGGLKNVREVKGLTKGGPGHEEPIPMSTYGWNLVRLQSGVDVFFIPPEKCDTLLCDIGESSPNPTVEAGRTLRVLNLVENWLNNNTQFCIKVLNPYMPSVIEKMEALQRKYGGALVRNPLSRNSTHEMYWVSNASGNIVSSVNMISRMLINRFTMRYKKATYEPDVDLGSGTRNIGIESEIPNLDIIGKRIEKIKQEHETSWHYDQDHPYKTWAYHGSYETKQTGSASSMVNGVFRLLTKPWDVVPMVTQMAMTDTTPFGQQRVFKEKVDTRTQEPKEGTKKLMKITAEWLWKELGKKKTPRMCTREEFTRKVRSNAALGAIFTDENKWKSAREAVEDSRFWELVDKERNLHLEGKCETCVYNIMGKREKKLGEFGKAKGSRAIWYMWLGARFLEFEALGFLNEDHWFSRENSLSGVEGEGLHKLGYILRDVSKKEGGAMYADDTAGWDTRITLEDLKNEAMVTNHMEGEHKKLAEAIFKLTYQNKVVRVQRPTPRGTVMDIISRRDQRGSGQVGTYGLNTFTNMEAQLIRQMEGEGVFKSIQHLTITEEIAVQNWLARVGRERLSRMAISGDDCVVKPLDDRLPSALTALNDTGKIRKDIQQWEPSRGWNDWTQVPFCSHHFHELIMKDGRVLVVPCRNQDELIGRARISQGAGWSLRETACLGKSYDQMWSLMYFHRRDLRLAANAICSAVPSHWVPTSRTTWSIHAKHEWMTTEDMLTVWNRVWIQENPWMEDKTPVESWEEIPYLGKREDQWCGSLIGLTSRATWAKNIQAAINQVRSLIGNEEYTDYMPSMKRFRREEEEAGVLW

With `CCC1Cc2c(nc(N)c3c(N)nc(N4CCCCC4)c(C#N)c23)O1` (configuration not stated) as the compound, how does the IC50 [1] read?
The IC50 was > 50 µM (not active).

For `O=C1NC(=S)S/C1=C\c1coc2ccc(O)cc2c1=O`, which IC50 (Aminopeptidase N) is on record?
Its IC50 is 38.8 µM (active).

What about the IC50 [2] of the same compound?
Its IC50 is 112 µM (active).

What does the source list for `Oc1nc(/C=C/c2ccc(Cl)cc2Cl)cc(C(F)(F)F)n1`?
EC50 (HEK293 [3]): 3.83 µM (active); IC50 (HEK293 [4]): 7.72 µM (active); IC50 (HEK293 [5]): > 20 µM (inactive); IC50 (HEK293 [6]): 5.9 µM (active); IC50 (Tumor necrosis factor): 3.75 µM (active); AC50 [7]: 1.49 µM (active); IC50 [8]: 1.74 µM (active); IC50 (Genome polyprotein): 68.2 µM (active); IC50 [9]: 4.57 µM (active); IC50 (HEK293 [10]): 11.9 µM (active)

What does the source list for `COc1ccc(NC(=O)c2ccc(COCC(F)(F)C(F)F)cc2)cc1`?
IC50 [11]: > 100 µM (active); CC50 [12]: > 40 µM (active); IC50 (cells): 47.8 µM (active)

What does the source list for `CC(C)N1C(=O)S/C(=C/c2ccc3c(c2)n(C)c(=O)n3C)C1=O`?
IC50 [13]: > 80 µM (inactive); IC50 (H9c2): 32.2 µM (inactive)

Which IC50 [11] does the source give for `CC1(C)CC(NC(=O)c2sc3cc(Cl)ccc3c2Cl)CC(C)(C)N1` here?
Its IC50 is > 100 µM (active).

What does the source list for `COc1ccccc1CNc1ncnc2sccc12`?
EC50 (HEK293 [3]): 1.69 µM (active); IC50 (HEK293 [4]): 4.4 µM (active); IC50 (HEK293 [5]): 14.8 µM (active); IC50 (HEK293 [6]): 8.12 µM (active); IC50 (Tumor necrosis factor): 4.19 µM (active); IC50 [8]: 3.08 µM (active); AC50 (INS1): 4.26 µM (active); IC50 (HEK293 [10]): > 20 µM (inactive)
